Data published in publication PMC1810525, “Antagonism of the prostaglandin D2 receptor CRTH2 attenuates asthma pathology in mouse eosinophilic airway inflammation” (Respiratory Research, 2007).

Key:
[1] = molecular target: iNOS (Homo sapiens, UniProt P35228); assay: Profiling panel, enzymatic assay iNOS; assay type: biochemical; conditions: 10 μM
Protocol: (§2) All assays were performed using recombinant human receptors and enzymes, and included the appropriate controls for assay validation. Enzymatic and binding assays, except for muscarinic binding, were performed by CEREP in vitro pharmacology profiling services. […] For stimulation of C3a, C5a, and ChemR23 receptors in InsP assays the following agonists were used: human recombinant C3a (C3a receptor), human recombinant C5a (C5a receptor), and the nonapeptide Chemerin (ChemR23).

[2] = molecular target: T1, CXCR2 (Homo sapiens, UniProt P25025); assay: Profiling panel, radioligand binding CXCR2; conditions: 10 μM
T1 sequence (P25025 1-360): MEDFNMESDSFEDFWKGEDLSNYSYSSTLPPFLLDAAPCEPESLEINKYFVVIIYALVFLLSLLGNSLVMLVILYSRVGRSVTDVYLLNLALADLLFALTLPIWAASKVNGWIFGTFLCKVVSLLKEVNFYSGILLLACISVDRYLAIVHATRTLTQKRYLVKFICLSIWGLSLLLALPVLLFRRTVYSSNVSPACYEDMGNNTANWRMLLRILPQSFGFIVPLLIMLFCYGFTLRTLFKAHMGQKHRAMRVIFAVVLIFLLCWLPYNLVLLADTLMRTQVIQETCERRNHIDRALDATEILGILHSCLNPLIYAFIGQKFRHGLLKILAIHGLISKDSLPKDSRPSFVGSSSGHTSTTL
Protocol: as §2

[3] = molecular target: T2, AT2 (Homo sapiens, UniProt P50052); assay: Profiling panel, radioligand binding AT2; conditions: 10 μM
T2 sequence (P50052 1-363): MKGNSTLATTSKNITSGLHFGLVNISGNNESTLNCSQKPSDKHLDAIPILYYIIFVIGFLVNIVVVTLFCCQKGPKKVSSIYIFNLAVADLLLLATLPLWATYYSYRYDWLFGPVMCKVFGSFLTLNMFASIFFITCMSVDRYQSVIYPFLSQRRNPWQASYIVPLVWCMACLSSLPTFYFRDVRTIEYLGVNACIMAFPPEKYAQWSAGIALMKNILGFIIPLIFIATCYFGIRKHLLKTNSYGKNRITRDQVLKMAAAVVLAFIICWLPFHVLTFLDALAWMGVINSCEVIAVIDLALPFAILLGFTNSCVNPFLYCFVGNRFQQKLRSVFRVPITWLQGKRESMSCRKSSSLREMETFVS
Protocol: as §2

[4] = molecular target: T3, C3a (Homo sapiens, UniProt Q16581); assay: Profiling panel, functional InsP C3a receptor; assay type: cell-based; conditions: 10 μM
T3 sequence (Q16581 1-482): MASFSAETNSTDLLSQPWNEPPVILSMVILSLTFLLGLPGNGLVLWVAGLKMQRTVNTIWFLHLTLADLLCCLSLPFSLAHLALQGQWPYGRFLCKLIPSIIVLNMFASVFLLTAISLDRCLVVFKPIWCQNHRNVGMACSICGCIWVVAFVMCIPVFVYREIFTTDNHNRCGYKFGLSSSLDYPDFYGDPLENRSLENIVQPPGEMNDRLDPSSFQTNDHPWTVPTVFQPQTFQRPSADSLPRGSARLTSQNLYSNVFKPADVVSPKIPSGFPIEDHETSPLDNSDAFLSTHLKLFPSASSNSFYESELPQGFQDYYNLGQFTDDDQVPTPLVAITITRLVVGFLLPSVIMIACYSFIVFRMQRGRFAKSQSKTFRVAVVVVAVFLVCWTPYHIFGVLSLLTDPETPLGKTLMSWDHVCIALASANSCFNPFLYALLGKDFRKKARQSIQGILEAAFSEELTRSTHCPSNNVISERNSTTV

[5] = system: Phospholipase A2; conditions: 10 μM, enzymatic
Protocol: (§1) TM30089 was tested at a final concentration of 10 μM in either binding or functional assays on several 7TM receptors, and in enzymatic assays on selected enzymes including those involved in arachidonic acid metabolism. All assays were performed using recombinant human receptors and enzymes, and included the appropriate controls for assay validation. Enzymatic and binding assays, except for muscarinic binding, were performed by CEREP in vitro pharmacology profiling services. Full description of methods and references is available on the CEREP Web site. […] Functional assays were performed using recombinant human receptors and enzymes, and included the appropriate controls for C3a, C5a, ChemR23 receptors by determining the inhibitory potency of TM30089 in InsP assays essentially as described above. For stimulation of C3a, C5a, and ChemR23 receptors in InsP assays the following agonists were used: human recombinant C3a (C3a receptor), human recombinant C5a (C5a receptor), and the nonapeptide Chemerin (ChemR23).

[6] = molecular target: Muscarinic (M2-selective) (Sus scrofa, UniProt P06199); conditions: 10 μM, binding, porcine heart membranes
Sequence of Muscarinic (M2-selective) (P06199 whole entry): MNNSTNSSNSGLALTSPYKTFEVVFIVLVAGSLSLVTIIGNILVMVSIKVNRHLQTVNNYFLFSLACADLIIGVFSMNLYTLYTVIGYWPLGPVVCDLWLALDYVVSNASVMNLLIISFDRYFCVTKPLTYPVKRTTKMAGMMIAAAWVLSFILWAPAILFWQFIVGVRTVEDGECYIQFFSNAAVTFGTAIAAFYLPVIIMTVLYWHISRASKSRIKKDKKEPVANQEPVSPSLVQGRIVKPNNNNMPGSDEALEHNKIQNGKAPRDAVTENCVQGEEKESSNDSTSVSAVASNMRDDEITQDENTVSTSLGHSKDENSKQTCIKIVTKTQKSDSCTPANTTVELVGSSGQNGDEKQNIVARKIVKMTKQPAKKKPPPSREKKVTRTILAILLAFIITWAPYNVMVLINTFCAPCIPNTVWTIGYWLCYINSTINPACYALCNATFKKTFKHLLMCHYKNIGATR
Protocol: as §1

[7] = system: Muscarinic (non-selective); conditions: 10 μM, binding, mouse brain homogenate
Protocol: as §1

[8] = molecular target: T4, Glucocorticoid (Homo sapiens, UniProt P04150); assay: Profiling panel, radioligand binding Glucocorticoid; conditions: 10 μM
T4 sequence (P04150 1-777): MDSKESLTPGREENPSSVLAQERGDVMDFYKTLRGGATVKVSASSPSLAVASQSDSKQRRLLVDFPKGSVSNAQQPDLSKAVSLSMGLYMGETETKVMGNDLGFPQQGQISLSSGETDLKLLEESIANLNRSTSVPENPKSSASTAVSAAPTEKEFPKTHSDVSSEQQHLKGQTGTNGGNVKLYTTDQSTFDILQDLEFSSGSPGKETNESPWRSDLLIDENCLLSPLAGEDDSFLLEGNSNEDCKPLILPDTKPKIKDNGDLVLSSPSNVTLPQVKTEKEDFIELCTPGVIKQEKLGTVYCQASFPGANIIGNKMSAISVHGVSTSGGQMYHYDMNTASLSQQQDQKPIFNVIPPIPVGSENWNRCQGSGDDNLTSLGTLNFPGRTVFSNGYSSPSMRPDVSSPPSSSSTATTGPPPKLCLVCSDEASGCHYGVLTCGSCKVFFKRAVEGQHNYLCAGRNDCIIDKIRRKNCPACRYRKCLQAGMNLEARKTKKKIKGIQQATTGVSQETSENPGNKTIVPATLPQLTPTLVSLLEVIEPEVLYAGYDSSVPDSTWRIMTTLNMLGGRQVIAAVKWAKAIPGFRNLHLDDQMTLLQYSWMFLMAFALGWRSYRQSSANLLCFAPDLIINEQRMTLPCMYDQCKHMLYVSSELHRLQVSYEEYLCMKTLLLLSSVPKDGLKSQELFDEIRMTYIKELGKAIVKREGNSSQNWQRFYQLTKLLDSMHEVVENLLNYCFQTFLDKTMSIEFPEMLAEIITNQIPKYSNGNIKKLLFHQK
Protocol: as §2

[9] = molecular target: mCRTH2; parameters: method as in PMID 15563582; conditions: obtained by others in the same expression system; read-out: reported Ki value mCRTH2; cited from earlier work

In the case of `CN(C1CCc2c(c3ccccc3n2CC(=O)O)C1)S(=O)(=O)c1ccc(F)cc1` (stereo not drawn) [TM30089], the “% of control iNOS” value [1] is reported as 102.3 ± 3.6%, the “% of control CXCR2” value [2] is reported as 104.6 ± 6.1% and the “% of control AT2” value [3] is reported as 98.1 ± 1.4%. For the same compound, the “% of control C3a” value [4] was 88.7 ± 5.9%, the “% of control Phospholipase A2” value [5] was 101.5 ± 1.0% and the “% of control Muscarinic (M2-selective)” value [6] was 97.5 ± 1.9%. The “% of control Muscarinic (non-selective)” value [7] was 106.7 ± 8.5% and the “% of control Glucocorticoid” value [8] was 98.9 ± 11.3%.

In the case of `O=C(O)CCn1c2c(c3ccccc31)C[C@H](NS(=O)(=O)c1ccc(F)cc1)CC2` [ramatroban, reference compound], the Ki [9] is listed as 0.028 µM.
